Data: US20210270843A1, “Immune Monitoring of Neuro-Inflammatory Amyotrophic Lateral Sclerosis (ALS)” (RAPA THERAPEUTICS, LLC, priority 2018, published 2021)
Several values for one entry are separate records, joined by “and”; a condition that tells them apart may be missing. Equal entries are not always repeated.

Tests used:
[1] = system: peripheral blood mononuclear cells from ALS patient; assay: Autonomous cytokine secretion of ALS patient PBMC before and during etanercept therapy; assay type: in vivo, human; settings: etanercept 50 mg per week s.c., PBMC incubated 24 hr without stimulation, similar on three values over three months
Protocol: We have observed that ALS patients can manifest autonomous inflammatory cytokine secretion when incubation of T cell- and monocyte-containing inoculum occurs for 24 hours in X-Vivo 20 media supplemented only with 5% human serum (FIG. 3). FIG. 3 depicts ALS patient and normal control autonomous cytokine secretion. ALS patient (“ALS”) and normal control (“NC”) peripheral blood mononuclear cells were either not separated (FIG. 3, right panel; mixture of T cells and monocytes), or separated into CD14^+ monocyte cells (FIG. 3, left panel) or CD3^+ T cells (FIG. 3, middle panel). The cells were incubated for 24 hours in media without any stimulation additives. After 24 hours, the supernatant was harvested and tested for cytokine content; TNF-α content is shown, with result described as pg per ml per 1×10^6 cells per 24 hours. […]
We reasoned that detection of autonomous secretion of inflammatory cytokines will have potential clinical implications, for example, in the monitoring of ALS disease response to investigational therapy. Towards this aim, we evaluated cytokine secretion in an ALS patient prior to and then after experimental therapy with the anti-TNF-α soluble recombinant receptor, etancercept (Enbrel®); there have been no reports of clinical trials evaluating etanercept therapy of ALS. […]

[2] = system: T cell receptor repertoire; assay: RNA-based T cell receptor repertoire sequencing of ALS patient PBMC pre- and post-etanercept therapy
PBMC = assay: CD40 ligand-driven cytokine secretion of PBMC (24 h culture, multiplex assay); assay type: cell-based; settings: X-Vivo 20 media with 5% human serum
Source text: Given this possibility, we evaluated whether simple addition of the recombinant human (rhu) CD40L molecule might uncover autonomous inflammatory cytokine secretion in ALS patients. There are no reports in the literature to date pertaining to CD40L-stimulation of ALS patient PBMC. […] Therefore, the detection of the inflammatory subset of ALS can be expanded by inclusion of patients that secrete cytokines autonomously and those patients that secrete inflammatory cytokines after CD40L stimulation. Patient hypersensitivity to CD40 ligand is driven by an imbalance in the post-CD40 receptor signaling pathway, with increased TRAF6 contribution to the signaling cascade during neuro-inflammation; importantly, the TRAF2 and TRAF3 family members inhibit post-CD40 signaling. As such, given this information, our monitoring method will also include Western Blot analyses for the detection of ALS patient balance of the TRAF family of proteins.
In FIG. 6, a sibling of a subject who was a carrier for the C9orf72 mutation was evaluated for autonomous cytokine secretion. […] This illustrates the importance of both neurologic and immunologic risk factors. […]

[3] = individual clones, post- versus pre-etanercept

etanercept was tested, and the “autonomous secretion of IL-6” value [1] was “reduced”, the “autonomous secretion of TNF-α” value [1] was “reduced” and the “TCR clonality, Diversity Index (CHAOE) after therapy” value ([2]; ALS patient post-therapy, pre-therapy sample approximately 650,000, normal controls ~300,000) was “approximately 599,000”. For the same molecule, the “reduction in TCR clonality in post-therapy sample” value ([2]; ALS patient, post- versus pre-therapy) was ~10%, the “T cell clonal contraction” value [2, 3] was “more than 4 log and ~4 log” and the “T cell clonal expansion” value [2, 3] was “more than 4 log and ~4 log”. For the same molecule, the “post-treatment frequency of contracted T cell clones” value ([2]; several clones, pre-etanercept frequencies 259 to 598) was 0.01.

B1: rhu CD40L: recombinant human (rhu) CD40L molecule (protein, UniProt P29965 113-261, looked up)
CD40 ligand, soluble form: MQKGDQNPQIAAHVISEASSKTTSVLQWAEKGYYTMSNNLVTLENGKQLTVKRQGLYYIYAQVTFCSNREASSQAPFIASLCLKSPGRFERILLRAANTHSSAKPCGQQSIHLGGVFELQPGASVFVNVTDPSQVSHGTGFTSFGLLKL
With B1 the inflammatory cytokine production (PBMC; PBMC from an ALS patient) was “can induce inflammatory cytokine production” and the “cytokine secretion after stimulation with CD40L” value (PBMC; PBMC from sibling of a C9orf72 mutation carrier) was “high levels of cytokine secretion”.
